Results on 1 substance are retold here after publication PMC12781162, “Human Protein Z as the Second Known Heme‐Binding Protein from the Endogenous Blood Coagulation Inhibitor System” (Chembiochem, 2025).

For one experiment, the target named is T1, PZ (Homo sapiens, UniProt P22891).
T1 construct: purchased CellSystems GmbH HCPZ-0220 (PZ); HCXA-0060 (FXa)
As to the kind of experiment: Thrombin-inhibiting activity of PZ in the presence of heme (chromogenic assay). Format: biochemical. The following applies: PZ 10 nM, thrombin 30 nM, 30 min preincubation of PZ with heme; read-out: EC50 (increase of inhibitory activity of PZ against thrombin by heme). The protocol:
Herein, an earlier established chromogenic thrombin amidolytic activity assay system was thus used, inspired by Hogg and Stenflo.^[ [19] ^, [28] ^] PZ (final concentration: 10 nM) was first incubated for 30 min with different heme concentrations (final concentrations: 1–1000 nM). […] Finally, 5 µL of the substrate solution (H‐D‐Phe‐Pip‐Arg‐pNA x 2 HCl (S‐2238); final concentration: 273 µM) was added. Immediately, kinetic measurements at 405 nm were started, using an Infinite 200 Pro spectrophotometer. Heme only, thrombin only, and PZ‐heme only served as controls. For evaluation, the thrombin activity was determined as the change of absorbance per second and always normalized against the basal thrombin activity without PZ. Data were analyzed as the mean of triplicate and the IC50 was calculated by nonlinear regression (GraphPad Prism, version 10.5.0).

Experiment [1] has as its target activated protein C (APC). Also on record: method as in PMID 32705892. The following applies: read-out: K D (heme binding to APC); cited from earlier work.
Another experiment deals with fibrinogen. Further details: method as in PMID 29322134, PMID 27229173. The following applies: read-out: K D (heme binding to fibrinogen); cited from earlier work.

Values joined by “and” are separate entries in the source; they are usually repeats but may differ in a detail not shown here. Identical values can stand only once.

Usually EC50 stands for the midpoint of the concentration-response curve.

T1 sequence (P22891 41-400): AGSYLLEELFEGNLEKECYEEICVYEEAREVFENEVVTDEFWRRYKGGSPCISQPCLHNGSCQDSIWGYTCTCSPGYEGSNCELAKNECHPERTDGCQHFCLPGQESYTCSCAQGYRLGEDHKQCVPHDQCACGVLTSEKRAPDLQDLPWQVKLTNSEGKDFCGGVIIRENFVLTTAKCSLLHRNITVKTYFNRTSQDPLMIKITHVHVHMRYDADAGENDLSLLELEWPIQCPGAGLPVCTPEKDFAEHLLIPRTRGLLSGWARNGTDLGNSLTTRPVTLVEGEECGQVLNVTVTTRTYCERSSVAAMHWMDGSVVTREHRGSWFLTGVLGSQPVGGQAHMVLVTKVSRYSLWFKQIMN

As to Hemin [heme], at PZ, the half-maximal effective concentration (EC50) was determined as 12.7 ± 6.36 nM. The Kd in experiment [1] was roughly 400 nM; on fibrinogen it was ~3 µM and ~3.3 µM.
